Drawing on ChEMBL document CHEMBL1151082, “Structure-directed discovery of an inhibitor of the binding of HIV GP120 to the CD4 receptor” (Bioorg Med Chem Lett, 1993), this text covers IC50 and Kd for 13 compounds.

Each structure is given as a SMILES string.

Assay [1] has as its target T1, Envelope glycoprotein gp160 (Human immunodeficiency virus type 1 group M subtype B (isolate HXB2)(HIV-1), UniProt P04578). Briefly: Tested for inhibition of binding of soluble recombinant CD4-gp120 using ELISA assay. Background: ELISA stands for enzyme-linked immunosorbent assay.
Assay [2] addresses T1, Envelope glycoprotein gp160. Briefly: Tested for inhibition of binding of soluble recombinant CD4-gp120 using ELISA assay; IA is Inactive.
The target is the same in assay [3]. The experiment in a line: Tested for rate constant of binding to inhibit soluble recombinant CD4-gp120; value ranges form 4-20 uM.
The target is the same in assay [4]. Briefly: Tested in an HIV viral syncytium assay for inhibition of binding of recombinant CD4-gp120.
For assay [5] the target is unchanged. Briefly: Tested for ability to block the CD4-gp120 interaction measured by binding of [125I]sCD4 to gp120.

As to `COC(=O)C(=O)N1CCC[C@@H]1C(=O)N[C@H](Cc1ccccc1)C(=O)OCc1ccccc1`, the IC50 (usually the concentration needed to halve the response being measured) in assay [1] was found to be 300 µM.

Take `O=C1OC(C[N+]23CCC(CC2)CC3)CC1(c1ccccc1)c1ccccc1.[Br-]` (stereo unspecified): the IC50 result in assay [2] was “Not Active”.

In the case of `CCNCC1CC(c2ccccc2)(c2ccccc2)C(=O)O1` (stereo unspecified), in assay [2], the IC50 result is given as “Not Active”.

With `CCN(CC1CC(c2ccccc2)(c2ccccc2)C(=O)O1)C(=O)C(=O)OC` (stereo unspecified), the IC50 result in assay [2] is “Not Active”.

`CCN(Cc1ccccc1)CC1CC(c2ccccc2)(c2ccccc2)C(=O)O1` (stereo unspecified): the IC50 result in assay [2] was “Not Active”.

As for `CC(C)C[C@H](NC(=O)[C@H](Cc1ccccc1)N1NC(=O)[C@H]([C@@H](N)CO)CCC(=O)N[C@@H](CO)C1=O)C(=O)N[C@H](C(=O)NCc1ccccc1)[C@@H](C)O`, the IC50 in assay [1] was > 100 µM. Also, in assay [3], the Kd (usually the concentration at which binding is half-saturated) was 4 µM.

Turning to `CC1(C)CN(CC2CC(c3ccccc3)(c3ccccc3)C(=O)O2)C=N1` (stereo unspecified), the IC50 result in assay [2] is “Not Active”.

For `CCN(CCN(C)C)CC1CC(c2ccccc2)(c2ccccc2)C(=O)O1` (stereo unspecified), the IC50 result in assay [2] is given as “Not Active”.

Turning to `CCN(CCCl)CC1CC(c2ccccc2)(c2ccccc2)C(=O)O1` (stereo unspecified), the IC50 was 100 µM in assay [4], 35 µM in assay [1] and 30 µM in assay [5].

As for `CN(C)CCNCC1CC(c2ccccc2)(c2ccccc2)C(=O)O1` (stereo unspecified), the IC50 result in assay [2] is on record as “Not Active”.

For `CC1=NCCN1CC1CC(c2ccccc2)(c2ccccc2)C(=O)O1` (stereo unspecified), the IC50 entry in assay [2] is listed as “Not Active”.

As to `O=C1OC(CBr)CC1(c1ccccc1)c1ccccc1` (stereo unspecified), the IC50 entry in assay [2] is “Not Active”.

For `CCCCN(CCCC)CC1CC(c2ccccc2)(c2ccccc2)C(=O)O1` (stereo unspecified), the 50% inhibitory concentration (IC50) entry in assay [2] is listed as “Not Active”.
